Paper PMC3794980, “Identification of Conserved and HLA Promiscuous DENV3 T-Cell Epitopes” (PLoS Neglected Tropical Diseases, 2013)
pIC50: −log10 of the molar value. Like-named read-outs stand apart in the source and are kept apart here.

What was measured:
Assay in all cases: biochemical
Type in all cases: binding
DRB5*0101 = DRB5*0101 (Homo sapiens, UniProt P01903+Q30154)
DRB1*0301 = DRB1*0301 (Homo sapiens, UniProt P01903+P01911, A100K/A102G/A103R/A169T/F55Y/I96L/K41T/L162R/M171V/P40S/Q125H/Q178H/Q39Y/R42S/S66N/T106N/T262R/W38E/Y61H)
Sequence of DRB1*0301 (P01903 26-254, other chains not shown): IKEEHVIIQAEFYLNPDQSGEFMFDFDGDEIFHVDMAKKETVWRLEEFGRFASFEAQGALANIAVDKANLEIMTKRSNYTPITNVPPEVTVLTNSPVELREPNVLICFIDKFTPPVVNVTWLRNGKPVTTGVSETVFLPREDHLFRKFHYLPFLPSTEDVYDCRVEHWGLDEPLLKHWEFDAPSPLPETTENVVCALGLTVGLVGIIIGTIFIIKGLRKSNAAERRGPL

DRB1*0701 = DRB1*0701 (Homo sapiens, UniProt P01903+P01911, A100R/A102G/A103Q/D57E/D86V/E43K/F76Y/K127E/L162R/M171V/P40G/Q125H/Q99D/R33Q/R42Y/R54Q/S133A/S66F/T210M/V115G/Y107V/Y59L/Y89S)
DRB1*1302 = DRB1*1302 (Homo sapiens, UniProt P01903+P01911, A100E/A169T/K41T/L162R/M171V/P40S/Q125H/Q178H/Q39Y/Q99D/R42S/S66N/T262R/V115G/W38E/Y61H); details: for IC50: competitive inhibition of radiolabeled standard peptide, read-out: Binding Affinity (nM) DRB1*1302
Sequence of DRB1*1302 (P01903 26-254 limits assumed, other chains not shown): as the sequence (P01903 26-254, other chains not shown) above

DRB1*0101 = DRB1*0101 (Homo sapiens, UniProt P01903+P01911, A100R/D57E/F55L/F60I/F76Y/I96L/L162R/M171V/P40L/Q125E/R42F/V115G/Y59C)
DRB3*0101 = DRB3*0101 (Homo sapiens, UniProt P01903+P79483)
DRB1*0401 = DRB1*0401 (Homo sapiens, UniProt P01903+P01911, A100K/A169T/F76Y/I96L/K127E/L162R/M171V/N62H/P40V/Q125Y/R42H/S133A/S149N/S66Y/V115G/V209L/W38E)
DRB1*1101 = DRB1*1101 (Homo sapiens, UniProt P01903+P01911, A100R/A169T/A87E/I96F/K41T/L162R/M171V/P40S/Q125H/Q178H/Q39Y/Q99D/R42S/S66Y/T262R/V115G/W38E)
Sequence of DRB1*1101 (P01903 26-254, other chains not shown): as above

DRB1*0802 = DRB1*0802 (Homo sapiens, UniProt P01903+P01911, A100R/A103L/A169T/F76Y/H45Y/I96F/K41T/L162R/M171V/P40S/Q125H/Q178H/Q39Y/Q99D/R218S/R42G/S66Y/V115G/W38E)
DRB1*0405 = DRB1*0405 (Homo sapiens, UniProt P01903+P01911, A100R/A169T/D86S/F76Y/I96L/K127E/L162R/M171V/N62H/P40V/Q125Y/R42H/S133A/S149N/S66Y/V115G/V209L/W38E)
DRB1*0404 = DRB1*0404 (Homo sapiens, UniProt P01903+P01911, A100R/A169T/F76Y/I96L/K127E/L162R/M171V/N62H/P40V/Q125Y/R42H/S133A/S149N/S66Y/V209L/W38E)
DRB4*0101 = DRB4*0101 (Homo sapiens, UniProt P01903+P13762, G164S)
DRB1*0901 = DRB1*0901 (Homo sapiens, UniProt P01903+P01911, A100R/A103E/D57H/D86V/F55Y/F60I/F76Y/I96F/K127E/L162R/M171V/P40D/Q125H/Q99R/R33Q/R42F/S133A/S66N/T210M/V115G/W38K/Y107V/Y59G/Y89S); details: for IC50: competitive inhibition of radiolabeled standard peptide, read-out: Binding Affinity (nM) DRB1*0901
DRB1*1501 = DRB1*1501 (Homo sapiens, UniProt P01903+P01911)

SMILES: CC(C)C[C@H](NC(=O)[C@H](CCCNC(=N)N)NC(=O)[C@H](Cc1c[nH]cn1)NC(=O)[C@H](CC(=O)O)NC(=O)[C@H](CS)NC(=O)[C@H](CC(C)C)NC(=O)[C@H](CCC(N)=O)NC(=O)[C@@H](NC(=O)[C@H](Cc1ccc(O)cc1)NC(=O)[C@@H](NC(=O)[C@H](CCC(=O)O)NC(=O)[C@H](CCCNC(=N)N)NC(=O)[C@H](CC(C)C)NC(=O)[C@H](CCCCN)NC(=O)[C@@H](N)CC(C)C)C(C)C)[C@@H](C)O)C(=O)O [NS1 169-183]
- pIC50 (DRB5*0101): 5.88
- pIC50 (DRB1*0301): 5.63
- pIC50 (DRB1*0701): 6.87
- IC50 (DRB1*1302; '-' distinct from ND): 9960 nM
- pIC50 (DRB1*0101): 6.65
- pIC50 (DRB3*0101): 6.13
- pIC50 (DRB1*0401): 6.32
- pIC50 (DRB1*1101): 5.32
- pIC50 (DRB1*0802): 5.59
- pIC50 (DRB1*0405): 6.56
- pIC50 (DRB1*0404): 6.34
- pIC50 (DRB4*0101): 6.06

SMILES: CC[C@H](C)[C@H](NC(=O)[C@H](CC(C)C)NC(=O)[C@H](CCCCN)NC(=O)CN)C(=O)N[C@@H](Cc1c[nH]cn1)C(=O)N[C@@H](CCC(=O)O)C(=O)N[C@@H](Cc1c[nH]c2ccccc12)C(=O)N[C@@H](CS)C(=O)N[C@@H](CS)C(=O)N[C@@H](CCCNC(=N)N)C(=O)N[C@@H](CO)C(=O)N[C@@H](CS)C(=O)N[C@H](C(=O)N[C@@H](CC(C)C)C(=O)N1CCC[C@H]1C(=O)O)[C@@H](C)O [NS1 305-319]
- pIC50 (DRB5*0101): 5.21
- pIC50 (DRB1*0301): 6.08
- pIC50 (DRB1*0701): 5.92
- IC50 (DRB1*1302; '-' distinct from ND): 3190 nM
- pIC50 (DRB1*0101): 5.59
- pIC50 (DRB3*0101): 5.91
- pIC50 (DRB1*0401): 5.75
- pIC50 (DRB1*1101): 5.36
- pIC50 (DRB1*0802): 5.14
- pIC50 (DRB1*0405): 5.46
- pIC50 (DRB1*0404): 5.36
- pIC50 (DRB4*0101): 5.69
- IC50 (DRB1*0901; '-' distinct from ND): 11400 nM

SMILES: CSCC[C@H](NC(=O)[C@@H](NC(=O)[C@H](CCC(N)=O)NC(=O)[C@H](Cc1ccccc1)NC(=O)[C@H](CC(N)=O)NC(=O)[C@H](CCCCN)NC(=O)[C@@H]1CCCN1C(=O)[C@@H](N)CC(N)=O)[C@@H](C)O)C(=O)N1CCC[C@H]1C(=O)NCC(=O)N[C@H](C(=O)N[C@@H](Cc1ccccc1)C(=O)N[C@@H](CCC(N)=O)C(=O)N[C@H](C(=O)N[C@H](C(=O)O)[C@@H](C)O)[C@@H](C)O)[C@@H](C)O [NS3 105-119]
- pIC50 (DRB5*0101): 6.75
- pIC50 (DRB1*0301): 4.93
- pIC50 (DRB1*0701): 5.55
- pIC50 (DRB1*1302): 5.62
- pIC50 (DRB1*0101): 7.31
- pIC50 (DRB3*0101): 5.60
- pIC50 (DRB1*0401): 8.27
- pIC50 (DRB1*1101): 7.07
- pIC50 (DRB1*0802): 6.76
- pIC50 (DRB1*0405): 7.02
- pIC50 (DRB1*0404): 7.41
- pIC50 (DRB4*0101): 6.07
- pIC50 (DRB1*0901): 6.39

SMILES: CC[C@H](C)[C@H](NC(=O)[C@H](CC(C)C)NC(=O)[C@H](CC(N)=O)NC(=O)[C@H](Cc1ccc(O)cc1)NC(=O)[C@H](CC(N)=O)NC(=O)[C@@H]1CCCN1)C(=O)N[C@H](C(=O)N[C@@H](CCSC)C(=O)N[C@@H](CC(=O)O)C(=O)N[C@@H](CCC(=O)O)C(=O)N[C@@H](C)C(=O)N[C@@H](Cc1c[nH]cn1)C(=O)N[C@@H](Cc1ccccc1)C(=O)N[C@H](C(=O)N[C@@H](CC(=O)O)C(=O)O)[C@@H](C)O)[C@@H](C)CC [NS3 277-291]
- pIC50 (DRB5*0101): 5.15
- pIC50 (DRB1*0301): 7.43
- pIC50 (DRB1*0701): 5.57
- pIC50 (DRB1*1501): 5.88
- IC50 (DRB1*1302; '-' distinct from ND): 68 nM
- pIC50 (DRB3*0101): 8.36
- pIC50 (DRB1*1101): 5.34
- pIC50 (DRB1*0802): 6.40
- pIC50 (DRB1*0405): 6.40
- pIC50 (DRB1*0404): 5.81
- pIC50 (DRB4*0101): 6.68
- IC50 (DRB1*0901; '-' distinct from ND): 2600 nM

SMILES: CC[C@H](C)[C@H](NC(=O)[C@@H](N)CCCCN)C(=O)N1CCC[C@H]1C(=O)NCC(=O)NCC(=O)N[C@@H](C)C(=O)N[C@@H](CCSC)C(=O)N[C@@H](Cc1ccc(O)cc1)C(=O)N[C@@H](C)C(=O)N[C@@H](CC(=O)O)C(=O)N[C@@H](CC(=O)O)C(=O)N[C@H](C(=O)N[C@@H](C)C(=O)NCC(=O)N[C@@H](Cc1c[nH]c2ccccc12)C(=O)N[C@@H](CC(=O)O)C(=O)N[C@H](C(=O)O)[C@@H](C)O)[C@@H](C)O [NS5 523-539]
- pIC50 (DRB5*0101): 5.38
- pIC50 (DRB1*0301): 8.03
- pIC50 (DRB1*0701): 5.18
- pIC50 (DRB1*1501): 4.82
- IC50 (DRB1*1302; DRB1*1302): 1430 nM
- pIC50 (DRB1*0101): 6.13
- pIC50 (DRB3*0101): 7.35
- pIC50 (DRB1*0401): 8.14
- pIC50 (DRB1*0802): 5.94
- pIC50 (DRB1*0405): 5.50
- pIC50 (DRB1*0404): 5.50
- pIC50 (DRB4*0101): 6.35
- IC50 (DRB1*0901; DRB1*0901): 13200 nM
